Measurements from paper PMC11436757, “BRCA2 stabilises RAD51 and DMC1 nucleoprotein filaments through a conserved interaction mode” (Nature Communications, 2024).
Entries after “also recorded” stand apart in the source; their conditions may differ. No end group written: not given here.

What was measured:
DMC1 ΔN [1] = target: T1, DMC1 ΔN (Homo sapiens, UniProt Q14565); assay: Microscale thermophoresis (MST), BRCA2 peptides and DMC1 ΔN; assay type: binding; settings: for Kd: MST from initial fluorescence, labelled DMC1 ΔN 150 nM, 10 mM HEPES pH 8.0, 150 mM NaCl, 0.05 % Tween-20, ~22 °C, mean, n = 3 independent experiments
T1 construct: DMC1 ΔN (83-340) were cloned into pHAT4; His6 (TEV-cleavable) (N, cleaved yes); made in house; host or cells: E. coli BL21 (DE3)
T1 sequence (Q14565 83-340): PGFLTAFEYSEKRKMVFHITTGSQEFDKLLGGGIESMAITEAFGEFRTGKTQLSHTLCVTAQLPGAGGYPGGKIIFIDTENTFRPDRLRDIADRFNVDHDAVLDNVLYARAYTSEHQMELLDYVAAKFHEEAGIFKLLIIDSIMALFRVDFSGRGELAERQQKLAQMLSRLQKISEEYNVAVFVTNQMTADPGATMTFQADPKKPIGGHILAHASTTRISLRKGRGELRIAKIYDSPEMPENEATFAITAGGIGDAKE
Protocol: DMC1 ΔN and DMC1 ΔN loop mutant were labelled in 10 mM HEPES pH 8.0, 150 mM NaCl with an amine reactive fluorescent dye (MonolithTM Protein Labelling Kit BLUE-NHS, Nanotemper GmbH). A serial dilution of titrant (peptide) was prepared in 10 mM HEPES pH 8.0, 150 mM NaCl, 0.05 % Tween-20. The concentration of labelled DMC1 ΔN or DMC1 ΔN loop mutant were constant at 150 nM and the concentration of the interacting peptide was titrated in 1:1 dilutions starting from 750 µM. An equal volume (10 µl) of the serial dilution and of the diluted labelled DMC1 were mixed and loaded in glass capillaries (MonolithTM NT.115 MST Premium Coated Capillaries, Nanotemper GmbH). The initial fluorescence and the thermophoretic mobility were measured on a Monolith NT.115 system (NanoTemper Technologies). The excitation power was 45 % and MST power was 60 % at room temperature (~22 °C). Laser on and off times were set at 5 and 30 seconds, respectively. Data analysis was performed with NT Affinity Analysis software.
As a change in initial fluorescence was detected, SDS denaturation (SD) tests were performed according to the manufacturer’s instructions to determine whether these changes were ligand-induced and whether the data could therefore be used to derive affinity measurements. Briefly, 7 µl of the samples containing the three highest and three lowest concentrations of peptide were mixed with 7 µl of denaturation buffer (4 % SDS, 40 mM DTT). After incubating each for 5 minutes at 95 °C to denature the proteins and subject to brief centrifugation, the samples were loaded onto Premium Coated Capillaries and their initial fluorescence measurements recorded. […] Initial fluorescence readings were used to derive binding affinities.

DMC1 ΔN loop mutant = target: T2, DMC1 ΔN loop mutant (Homo sapiens, UniProt Q14565, A148D/A183D/D180S/D182S/G147I/G149R/G153E/H181G/N178G/P152G/V179L/Y151G); assay: Amylose pull-down of DMC1 ΔN loop mutant with MBP-BRCA2 fusions; assay type: binding; settings: recombinant co-expression with MBP-BRCA2 fusion
T2 construct: DMC1 ΔN (83-340) were cloned into pHAT4; made in house
T2 sequence (Q14565 83-340 G147I/A148D/G149R/Y151G/P152G/G153E/N178G/V179L/D180S/H181G/D182S/A183D limits assumed): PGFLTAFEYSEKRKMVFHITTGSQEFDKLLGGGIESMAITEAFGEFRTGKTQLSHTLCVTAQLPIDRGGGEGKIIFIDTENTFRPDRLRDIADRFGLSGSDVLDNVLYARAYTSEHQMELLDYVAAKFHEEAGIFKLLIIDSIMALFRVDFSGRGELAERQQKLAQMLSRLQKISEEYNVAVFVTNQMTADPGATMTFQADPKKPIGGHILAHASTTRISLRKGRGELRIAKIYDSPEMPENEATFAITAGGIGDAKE
From the text: (§1) For affinity pulldown experiments, MBP-fusions of BRCA2 fragments (Ex14, amino-acids 2387-2420, Ex14-Tr, amino acids 2401-2414, Ex27, amino acids 3270-3315, BRC4, amino acids 1519-1551) were cloned into pMAT11 vectors[54] and co-expressed with DMC1 ΔN, DMC1 ΔN loop mutant (in which DMC1 amino acids 147-GAGGYPG-153 and 178-NVDHDA-183 were replaced by the cognate sequences of RAD51 148-IDRGGGE-154 and 179-GLSGSD-184), RAD51 ΔN, RAD51 ΔN loop mutant (the reverse switch of DMC1 ΔN loop mutant), and RAD51. MBP-fusions and complexes were purified through amylose affinity chromatography.

DMC1 ΔN [2] = target: T1, DMC1 ΔN; assay: Amylose pull-down of DMC1 ΔN with MBP-BRCA2 fusions; assay type: binding; settings: recombinant co-expression with MBP-BRCA2 fusion
From the text: as §1

RAD51 ΔN loop mutant = assay: Amylose pull-down of RAD51 loop mutant with MBP-BRCA2 fusions; settings: RAD51 with DMC1's PhePP-binding loops; MBP-BRCA2 fusion
From the text: as §1

RAD51 ΔN = assay: Amylose pull-down of RAD51 ΔN with MBP-BRCA2 fusions; assay type: binding; settings: recombinant co-expression with MBP-BRCA2 fusion
From the text: as §1

Question: What does the source list for “ATRNEKMRHLITTGRPTKVFVPPFKTKSHFHRVE [Ex14]”?
Answer: Kd (DMC1 ΔN [1]): 30.4 µM; affinity of Ex14 relative to Ex27 (DMC1 ΔN [1]; MST, DMC1 ΔN): over threefold higher affinity than Ex27; binding in pull-down (DMC1 ΔN loop mutant): abolished its ability to bind Ex14; also recorded: blocked Ex14-; binding in pull-down (DMC1 ΔN [2]): bind; binding in pull-down (RAD51 ΔN loop mutant): failed to; binding in pull-down (RAD51 ΔN): binds selectively to BRCA2 Ex27 rather than Ex14

Question: “Ex27: BRCA2 exon 27 PhePP peptide, amino acids 3270-3315 (ALDFLSRLPLPPPVSPICTFVSPAAQKAFQPPRSCGTKYETPIKKK; UniProt P51587 3270-3315, looked up, fragment)” was tested. Which Kd (DMC1 ΔN [1]) did it give?
Answer: > 96.2 µM

Question: What about the binding in pull-down (DMC1 ΔN loop mutant) of the same substance?
Answer: failed to bind; also recorded: failed to interact with Ex27

Question: What about the binding in pull-down (DMC1 ΔN [2]) of the same substance?
Answer: not

Question: What about the binding in pull-down (RAD51 ΔN loop mutant) of the same substance?
Answer: failed to

Question: And the binding in pull-down (RAD51 ΔN)?
Answer: binds selectively
